Converted amounts (≈) assume the structure as drawn.
Details: 25 °C

| Compound | solubility |
| --- | --- |
| c1ccc2[nH]c(-c3cscn3)nc2c1 | 0.248 mM (≈ 50 µg/mL) |
| CCCSP(=O)(OCC)SCCC | 3.09 mM (≈ 750 µg/mL) |
| CC(C)NC(=O)N1CC(=O)N(c2cc(Cl)cc(Cl)c2)C1=O | 0.0421 mM (≈ 13.9 µg/mL) |
| COC(=O)Nc1cccc(OC(=O)Nc2cccc(C)c2)c1 | 0.0161 mM (≈ 4.85 µg/mL) |
| COP(=O)(NC(C)=O)SC (stereo not drawn) | 4470 mM (≈ 818000 µg/mL) |
| CCN(CC)C(=O)SCc1ccc(Cl)cc1 | 0.109 mM (≈ 28 µg/mL) |
| CC(C)C(Nc1ccc(C(F)(F)F)cc1Cl)C(=O)OC(C#N)c1cccc(Oc2ccccc2)c1 (stereo not drawn) | 6.29e-06 mM (≈ 0.00316 µg/mL) |
| Cn1c(=O)on(-c2ccc(Cl)c(Cl)c2)c1=O | 0.00575 mM (≈ 1.5 µg/mL) |
| CNC(=O)Oc1ccc(SC)c(C)c1 | 0.107 mM (≈ 22.5 µg/mL) |
| O=C1C2CC=CCC2C(=O)N1SC(Cl)(Cl)Cl (stereo not drawn) | 0.017 mM (≈ 5.1 µg/mL) |
| COC(=O)c1ccccc1CS(=O)(=O)NC(=O)Nc1nc(OC)cc(OC)n1 | 0.292 mM (≈ 120 µg/mL) |
| CC(C)[C@H](C(=O)OC(C#N)c1cccc(Oc2ccccc2)c1)c1ccc(OC(F)F)cc1 (stereo partly drawn) | 0.000133 mM (≈ 0.06 µg/mL) |
| CC(C)(C)C(=O)C(Oc1ccc(Cl)cc1)n1cncn1 (stereo not drawn) | 0.243 mM (≈ 71.5 µg/mL) |

— the OPERA property sets (Mansouri et al. 2018)
